Here are results for 32 compounds from patent publication US20250214969A1, “PROTEIN DEGRADERS AND USES THEREOF” (Kymera Therapeutics, Inc., priority 2022, published 2025).

For one experiment, the target named is T1, truncated His-MBP-Tev-KLHDC2 (residues 1-363) (Homo sapiens, UniProt Q9Y2U9).
T1 construct: truncated His -MBP-Tev-KLHDC2 (residues 1-363) purified from E. coli; made in house; host or cells: E. coli
T1 sequence (Q9Y2U9 1-363): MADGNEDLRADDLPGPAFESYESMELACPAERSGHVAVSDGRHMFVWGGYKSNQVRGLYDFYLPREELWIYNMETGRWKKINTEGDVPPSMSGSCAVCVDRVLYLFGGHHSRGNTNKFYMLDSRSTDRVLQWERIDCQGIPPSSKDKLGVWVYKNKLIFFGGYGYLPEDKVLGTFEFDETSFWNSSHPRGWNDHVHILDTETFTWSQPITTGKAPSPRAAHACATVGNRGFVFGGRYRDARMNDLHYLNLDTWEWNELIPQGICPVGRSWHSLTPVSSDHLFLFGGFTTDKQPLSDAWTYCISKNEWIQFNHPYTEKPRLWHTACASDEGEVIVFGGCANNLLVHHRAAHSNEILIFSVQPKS
As to the kind of experiment: KLHDC2 HTRF binding assay. Particulars: 1 nM KLHDC2 (residues 1-363), fluorescein-labeled diglycine peptide probe. (In general: Time-resolved FRET reads energy transfer from a long-lived donor to a nearby acceptor.)
Consider `O=C(O)Cn1cc(NC(=O)C2(S(=O)(=O)c3ccc(Cl)cc3)CCCC2)ccc1=O` [I-236], for which the IC50 (usually the midpoint of a concentration-inhibition curve) was greater than 5 µM.
Still for that read-out and setting: the value for `CCN(CC)c1ccc2cc(C(=O)Nc3ccc(=O)n(CC(=O)O)c3)c(=O)oc2c1` [I-237] was 0.05 to 0.5 µM.
`CC(C)Cn1ccc2c(C(=O)Nc3ccc(=O)n(CC(=O)O)c3)cccc21` [I-238] gave an IC50 of 0.05 to 0.5 µM.
Still for that read-out and setting: the value for `O=C(O)Cn1cc(NC(=O)CCCc2ccc(C3CC3)cc2)ccc1=O` [I-239] was 0.5 to 5 µM; that for `O=C(O)Cn1cc(NC(=O)c2cccc(C3CCC3)c2)ccc1=O` [I-240] was greater than 5 µM; that for `CCCCC(=O)Nc1cncc(C(=O)Nc2ccc(=O)n(CC(=O)O)c2)c1` [I-241] was greater than 5 µM.
The same measure, in the same setting: in the case of `O=C(O)Cn1cc(NC(=O)c2occc2CN2C(=O)Cc3ccccc32)ccc1=O` [I-242] it was 0.5 to 5 µM; in that of `COc1ccc(-c2ccccc2)cc1C(=O)Nc1ccc(=O)n(CC(=O)O)c1` [I-243], greater than 5 µM; in that of `O=C(O)Cn1cc(NC(=O)COc2ccc(Oc3ccccc3)cc2)ccc1=O` [I-244], greater than 5 µM.
On the same count and under the same terms, in the case of `O=C(O)Cn1cc(NC(=O)C2CCCc3cc(O)ccc32)ccc1=O` (stereo not shown) [I-245] it was greater than 5 µM; in that of `Cc1nn(-c2ccc(F)cc2F)c(C)c1CC(=O)Nc1ccc(=O)n(CC(=O)O)c1` [I-246], greater than 5 µM; in that of `O=C(O)Cn1cc(NC(=O)c2nccc3c(Cl)cccc23)ccc1=O` [I-248], 0.5 to 5 µM.
Regarding `O=C(O)Cn1cc(NC(=O)c2ccc(-c3ccccc3)s2)ccc1=O` [I-249], the IC50 was 0.5 to 5 µM.
The same measure, in the same setting: in the case of `O=C(O)Cn1cc(NC(=O)COc2cccnc2)ccc1=O` [I-250] it was greater than 5 µM; in that of `O=C(O)Cn1cc(NC(=O)COc2cccc3cnccc23)ccc1=O` [I-251], greater than 5 µM; in that of `O=C(O)Cn1cc(NC(=O)COc2cccc(C(F)(F)F)c2)ccc1=O` [I-252], greater than 5 µM.
The same measure, in the same setting: the value for `CCc1ccc(C(=O)CCC(=O)Nc2ccc(=O)n(CC(=O)O)c2)cc1` [I-253] was greater than 5 µM; that for `Cc1onc(-c2ccc(F)cc2)c1C(=O)Nc1ccc(=O)n(CC(=O)O)c1` [I-254] was greater than 5 µM; that for `O=C(O)Cn1cc(NC(=O)c2ccc(-c3ccccc3Cl)o2)ccc1=O` [I-255] was greater than 5 µM.
Turning to `O=C(O)Cn1cc(NC(=O)COc2ccc(C(F)(F)F)cc2)ccc1=O` [I-256], the IC50 is greater than 5 µM.
Still for that read-out and setting: in the case of `O=C(O)Cn1cc(NC(=O)COc2cc(Cl)cc(Cl)c2)ccc1=O` [I-257] it was greater than 5 µM; in that of `N#Cc1cccc(OCC(=O)Nc2ccc(=O)n(CC(=O)O)c2)c1` [I-258], greater than 5 µM; in that of `COc1c(C(=O)Nc2ccc(=O)n(CC(=O)O)c2)cccc1-c1ccccc1` [I-259], 0.5 to 5 µM.
Still for that read-out and setting: in the case of `O=C(O)Cn1cc(NC(=O)c2ccnc(-c3ccccc3)c2)ccc1=O` [I-260] it was greater than 5 µM; in that of `COc1cccc(OCC(=O)Nc2ccc(=O)n(CC(=O)O)c2)c1` [I-261], greater than 5 µM; in that of `COc1cc(C(=O)Nc2ccc(=O)n(CC(=O)O)c2)cc(-c2ccccc2)c1` [I-262], greater than 5 µM.
The same measure, in the same setting: the value for `O=C(O)Cn1cc(NC(=O)COc2cccc3ncccc23)ccc1=O` [I-263] was greater than 5 µM.
In turn, `O=C(O)Cn1cc(NC(=O)COc2ccccn2)ccc1=O` [I-264] yielded an IC50 greater than 5 µM.
`O=C(O)Cn1cc(NC(=O)COc2cccc(Cl)c2)ccc1=O` [I-265] registered an IC50 greater than 5 µM.
The same measure, in the same setting: the value for `Cc1ccccc1OCC(=O)Nc1ccc(=O)n(CC(=O)O)c1` [I-266] was greater than 5 µM; that for `O=C(O)Cn1cc(NC(=O)c2cc(-c3ccccc3)ccn2)ccc1=O` [I-267] was greater than 5 µM.
`O=C(O)Cn1cc(NC(=O)c2cccc(Br)c2)ccc1=O` [I-268] registered an IC50 greater than 5 µM.

In another experiment the target is T1, truncated His-MBP-Tev-KLHDC2 (residues 1-363). As to the kind of experiment: KLHDC2 FP competition binding assay. The note with it: 15 nM KLHDC2 (residues 1-363), 10 nM fluorescein-labeled diglycine peptide probe, read-out: KLHDC2 binding Human FP: average external IC50.
With `O=C(O)Cn1cc(NC(=O)C2(S(=O)(=O)c3ccc(Cl)cc3)CCCC2)ccc1=O` [I-236], the IC50 was greater than 5 µM.
On the same count and under the same terms, the value for `CCN(CC)c1ccc2cc(C(=O)Nc3ccc(=O)n(CC(=O)O)c3)c(=O)oc2c1` [I-237] was 0.5 to 5 µM.
On the same count and under the same terms, the value for `CC(C)Cn1ccc2c(C(=O)Nc3ccc(=O)n(CC(=O)O)c3)cccc21` [I-238] was greater than 5 µM.
In the case of `O=C(O)Cn1cc(NC(=O)CCCc2ccc(C3CC3)cc2)ccc1=O` [I-239], the IC50 is greater than 5 µM.
As for `O=C(O)Cn1cc(NC(=O)c2cccc(C3CCC3)c2)ccc1=O` [I-240], the IC50 was greater than 5 µM.
Still for that read-out and setting: the value for `CCCCC(=O)Nc1cncc(C(=O)Nc2ccc(=O)n(CC(=O)O)c2)c1` [I-241] was greater than 5 µM; that for `O=C(O)Cn1cc(NC(=O)c2occc2CN2C(=O)Cc3ccccc32)ccc1=O` [I-242] was greater than 5 µM.
Still for that read-out and setting: in the case of `COc1ccc(-c2ccccc2)cc1C(=O)Nc1ccc(=O)n(CC(=O)O)c1` [I-243] it was greater than 5 µM.
Still for that read-out and setting: in the case of `O=C(O)Cn1cc(NC(=O)COc2ccc(Oc3ccccc3)cc2)ccc1=O` [I-244] it was greater than 5 µM; in that of `O=C(O)Cn1cc(NC(=O)C2CCCc3cc(O)ccc32)ccc1=O` (stereo not shown) [I-245], greater than 5 µM; in that of `Cc1nn(-c2ccc(F)cc2F)c(C)c1CC(=O)Nc1ccc(=O)n(CC(=O)O)c1` [I-246], greater than 5 µM.
Turning to `O=C(O)Cn1cc(NC(=O)c2nccc3c(Cl)cccc23)ccc1=O` [I-248], the IC50 is greater than 5 µM.
The same measure, in the same setting: in the case of `O=C(O)Cn1cc(NC(=O)c2ccc(-c3ccccc3)s2)ccc1=O` [I-249] it was greater than 5 µM; in that of `O=C(O)Cn1cc(NC(=O)COc2cccnc2)ccc1=O` [I-250], greater than 5 µM.
As for `O=C(O)Cn1cc(NC(=O)COc2cccc3cnccc23)ccc1=O` [I-251], the IC50 is greater than 5 µM.
`O=C(O)Cn1cc(NC(=O)COc2cccc(C(F)(F)F)c2)ccc1=O` [I-252]: the IC50 was greater than 5 µM.
Regarding `CCc1ccc(C(=O)CCC(=O)Nc2ccc(=O)n(CC(=O)O)c2)cc1` [I-253], the IC50 was greater than 5 µM.
Still for that read-out and setting: in the case of `Cc1onc(-c2ccc(F)cc2)c1C(=O)Nc1ccc(=O)n(CC(=O)O)c1` [I-254] it was greater than 5 µM; in that of `O=C(O)Cn1cc(NC(=O)c2ccc(-c3ccccc3Cl)o2)ccc1=O` [I-255], greater than 5 µM.
The same measure, in the same setting: in the case of `O=C(O)Cn1cc(NC(=O)COc2ccc(C(F)(F)F)cc2)ccc1=O` [I-256] it was greater than 5 µM; in that of `O=C(O)Cn1cc(NC(=O)COc2cc(Cl)cc(Cl)c2)ccc1=O` [I-257], greater than 5 µM.
Same read-out and setting: the value for `N#Cc1cccc(OCC(=O)Nc2ccc(=O)n(CC(=O)O)c2)c1` [I-258] was greater than 5 µM; that for `COc1c(C(=O)Nc2ccc(=O)n(CC(=O)O)c2)cccc1-c1ccccc1` [I-259] was greater than 5 µM.
As for `O=C(O)Cn1cc(NC(=O)c2ccnc(-c3ccccc3)c2)ccc1=O` [I-260], the IC50 was greater than 5 µM.
As for `COc1cccc(OCC(=O)Nc2ccc(=O)n(CC(=O)O)c2)c1` [I-261], the IC50 was greater than 5 µM.
The same measure, in the same setting: the value for `COc1cc(C(=O)Nc2ccc(=O)n(CC(=O)O)c2)cc(-c2ccccc2)c1` [I-262] was greater than 5 µM; that for `O=C(O)Cn1cc(NC(=O)COc2cccc3ncccc23)ccc1=O` [I-263] was greater than 5 µM; that for `O=C(O)Cn1cc(NC(=O)COc2ccccn2)ccc1=O` [I-264] was greater than 5 µM.
Same read-out and setting: the value for `O=C(O)Cn1cc(NC(=O)COc2cccc(Cl)c2)ccc1=O` [I-265] was greater than 5 µM.
Same read-out and setting: in the case of `Cc1ccccc1OCC(=O)Nc1ccc(=O)n(CC(=O)O)c1` [I-266] it was greater than 5 µM; in that of `O=C(O)Cn1cc(NC(=O)c2cc(-c3ccccc3)ccn2)ccc1=O` [I-267], greater than 5 µM.
Turning to `O=C(O)Cn1cc(NC(=O)c2cccc(Br)c2)ccc1=O` [I-268], the IC50 is greater than 5 µM.
